Marks after values point to notes of the source that are not given here.
How the values were obtained:
Type in all cases: in vivo
[1] = tested on: PD-LID rat model (6-OHDA-lesioned rats); assay: Dyskinesia improving effect upon continuous subcutaneous infusion of tandospirone in PD-LID rat model
Experimental: The behavior was observed and evaluated before the drug evaluation date. The rats were assigned to each dosing group by using the 3 hour AIMs score, Locomotive behavior score, and rat body weight as indicators, which were used for evaluation of drugs. However, individuals with a total AIMs score of less than 10 were excluded from the test as lacking manifestation of a dyskinesia-like symptom. Individuals with a body weight deviating 10% or more from the mean body weight were also excluded from the test to minimize variation in the dosage for each individual. […] The prepared solution was used after injection into an ALZET® Osmotic Pump MODEL 2ML1 (9.68 μL/hour; DURECT). […] After 4 hours, a levodopa containing solution was administered to observe and evaluate the behavior. […] The results in the drawings are indicated in terms of mean value±standard error. The test results were statistically analyzed by comparison with the solvent administration group by Steel test using the total AIMs score in 3 hours and the total AIMs score in 100 to 180 minutes as parameters. * indicates p<0.05, meaning that there is a significant difference.

[2] = tested on: PD-LID rat model (6-OHDA-lesioned rats); assay: Oral administration of tandospirone citrate on dyskinesia-like symptoms in PD-LID rat model
Experimental: The behavior was observed and evaluated using the same method as Example 2. […] After 5 minutes, a levodopa containing solution was intraperitoneally administered, and the behavior was observed and evaluated. The results in the drawings are indicated in terms of mean value±standard error. The test results were statistically analyzed by comparison with the solvent administration group by Steel test using the total AIMs score in 3 hours and total AIMs score in 100 to 180 minutes as parameters. * indicates p<0.05, meaning that there is a significant difference. The dosage was described as a numerical value converted in terms of tandospirone free form.

[3] = tested on: PD-LID rat model (6-OHDA-lesioned rats); assay: ON-time prolongation action (ON score, ON time without dyskinesia) in PD-LID rat model; details: oral 100 mg/kg as citrate
Experimental: To make a PD-LID rat model, a mixture of levodopa methyl ester hydrochloride (6 mg/kg; Sigma-Aldrich) dissolved in saline and benserazide hydrochloride (15 mg/kg; Sigma-Aldrich) (hereinafter, also referred to as “levodopa containing solution”) was intraperitoneally administered once daily to 6-OHDA-lesioned rats. The levodopa containing solution was repeatedly administered for 3 weeks or longer to observe and evaluate the behavior. […] The sum of the scores for Limb AIMs, Axial AIMs, and Orolingual AIMs in 3 hours was used as the total dyskinesia-like symptom (AIMs) score. Individuals with a total AIMs score of less than 10 were excluded from the test as not manifesting a dyskinesia-like symptom. The behavior was observed and evaluated before the drug evaluation date. The rats were assigned to each dosing group by using the 3 hour total dyskinesia-like symptom (AIMs) score, Locomotive behavior score, and rat body weight as indicators, which were used for evaluation of drugs. For an indicator of dyskinesia behavior, the sum of the Limb AIMs, Axial AIMs, and Orolingual AIMs at each evaluation point was used as the AIMs score. For the rotational behavior (ON score), Locomotive behavior at each evaluation point was used as an indicator. The total ON score in 3 hours was used as the total ON score. For ON time without dyskinesia, the period during which the AIMs score is 0 and Locomotive behavior is 1 or greater at each evaluation point was added. Duration of action of levodopa without a dyskinesia symptom (ON time without dyskinesia) refers to the aggregate time with no dyskinesia during the antiparkinsonian action effective time, i.e., “ON-time”, and defined as the time during which the dyskinesia symptom (AIMs) score is 0 and the rotational behavior (Locomotive behavior) score is 1 or greater at each evaluation point after levodopa administration. […] After 5 minutes, a levodopa containing solution was intraperitoneally administered, and the behavior was observed and evaluated. The results in the drawings are indicated in terms of mean value±standard error. The test results were statistically analyzed by comparison with the solvent administration group using the Steel test with the total ON score in 3 hours or ON time without dyskinesia as an indicator. ** indicates p<0.01, meaning that there is a significant difference. For evaluation of a tape agent, the abdominal regions of the rats were shaved prior to the evaluation date. […] After 4 hours from application, a levodopa containing solution was intraperitoneally administered to observe and evaluate the behavior. The results in the drawings are indicated in terms of mean value±standard error. Individuals with 50% or more of the tape agent coming off during the test were excluded from analysis. The test results were statistically analyzed by comparison with the placebo tape administration group using Wilcoxon rank sum test with the total ON score in 3 hours or ON time without dyskinesia as an indicator. * indicates p<0.05 and ** indicates […], meaning that there is a significant difference compared to the solvent oral administration group or the placebo tape administration group.

[4] = tested on: rat Vogel conflict test model; assay: Rat Vogel conflict test model (anxiolytic action); details: non-clinical models, PD-LID effect in 6-OHDA-lesioned rats
Experimental: The anxiolytic action was evaluated using a rat Vogel conflict test model, and the effect on PD-LID was evaluated in 6-OHDA-lesioned rats.

[5] = continuous subcutaneous infusion 1.25 mg/kg/hour
[6] = oral 20 mg/kg as free form, FIGS. 7A-7C
[7] = oral 20 mg/kg as free form, FIGS. 8A-8L

SMILES: O=C1[C@@H]2[C@H]3CC[C@H](C3)[C@@H]2C(=O)N1CCCCN1CCN(c2ncccn2)CC1 [tandospirone, (1R,2S,3R,4S)—N-[4-{4-(pyrimidine-2-yl)piperadine-1-yl}butyl]-2,3-bicyclo[2.2.1]heptanedicarboximide]
- dyskinesia-like symptoms (total AIMs score in 180 minutes) vs solvent [1, 5]: significant improvement
- total AIMs score in 100 to 180 minutes vs solvent [1, 5]: significant improvement
- dyskinesia-like symptoms (total AIMs score in 180 minutes) ([1]; continuous subcutaneous infusion 0.05, 0.25, 1.25 mg/kg/hour, levodopa after 4 hours): dose-dependently improved dyskinesia-like symptoms
- clear dyskinesia-like symptom (mean AIMs score of 2 or greater) at 120 to 140 minutes after levodopa administration ([1]; continuous subcutaneous infusion 0.05-1.25 mg/kg/hour): not found
- rebound symptom ([1]; continuous subcutaneous infusion, any of the dosages): did not lead to a rebound symptom
- (i) Indicator of degree of improvement in dyskinesia symptom, in words ([2]; oral 6.7 mg/kg as free form): No improvement
- (i) difference in total AIMs score in 3 hours (solvent minus tandospirone) ([2]; oral 6.7 mg/kg as free form): −3.1
- (ii) Indicator of rebound symptom of dyskinesia, in words ([2]; oral 6.7 mg/kg as free form): Exacerbating trend
- (ii) difference in total AIMs score in 100 to 180 minutes (solvent minus tandospirone) ([2]; oral 6.7 mg/kg as free form): −3.5
- (i) Indicator of degree of improvement in dyskinesia symptom, in words ([2]; oral 20 mg/kg as free form): No improvement
- (ii) Indicator of rebound symptom of dyskinesia, in words ([2]; oral 20 mg/kg as free form): Exacerbation
- (i) difference in total AIMs score in 3 hours (solvent minus tandospirone) [2, 6]: −6.5(FIGS. 7A-7C)
- (ii) difference in total AIMs score in 100 to 180 minutes (solvent minus tandospirone) [2, 6]: −9.1*(FIGS. 7A-7C)
- (i) difference in total AIMs score in 3 hours (solvent minus tandospirone) [2, 7]: −8.6(FIGS. 8A-8L)
- (ii) difference in total AIMs score in 100 to 180 minutes (solvent minus tandospirone) [2, 7]: −8.5*(FIGS. 8A-8L)
- (i) Indicator of degree of improvement in dyskinesia symptom, in words ([2]; oral 67 mg/kg as free form): No improvement
- (i) difference in total AIMs score in 3 hours (solvent minus tandospirone) ([2]; oral 67 mg/kg as free form): 2.9
- (ii) Indicator of rebound symptom of dyskinesia, in words ([2]; oral 67 mg/kg as free form): Exacerbation
- (ii) difference in total AIMs score in 100 to 180 minutes (solvent minus tandospirone) ([2]; oral 67 mg/kg as free form): −10.1*
- ON-time without dyskinesia for 180 minutes (Locomotive behavior ≥1, and AIMs score=0) [3]: prolongation of ON time without dyskinesia was observed only at a dose at which there is a risk of side effects
- anxiolytic action compared with effect on PD-LID [4]: exerted at the same dosage

— patent US11559525B2, “Therapeutic drug for dyskinesia” (Sumitomo Pharma Co., Ltd., priority 2019, dated 2023)
